Assay results as given in US20140343050A1, “PRODRUGS OF D-ISOGLUTAMYL-[D/L]-TRYPTOPHAN” (APTOEX TECHNOLOGIES, INC., priority 2011, published 2014).

How the values were obtained:
human hepatocytes = test: Biotransformation to Apo805 in human hepatocytes; settings: for Half-life for bioconversion to Apo805 (h), Human hepatocytes: 100 μM prodrug, pooled cryopreserved human hepatocytes
Description: LiverPool® cryopreserved human hepatocytes (pooled from 10 male donors) was obtained from Celsis In Vitro Technologies. The hepatocytes were stored in liquid nitrogen until used. Just before the assay, the hepatocytes were quickly thawed at 37° C. and centrifuged at 100×g for 10 min. The media was removed and cells were re-suspended in PBS at a density of 4×10^6 cells/mL. […] After 10, 20, 60, 120 and 240 min of incubation, the reaction was quenched by adding an equal volume of 5% (w/v) TCA. The “time 0” sample was generated by adding TCA before the test compound. After brief vortexing and 10-min incubation on ice, samples were centrifuged (16,000×g, 10 min) and the supernatants were analyzed by HPLC with UV detection.
(§1) HPLC analysis was done using an Agilent 1100 series HPLC system consisting of a programmable multi-channel pump, auto-injector, vacuum degasser and HP detector controlled by Agilent HPLC218 Chem Station Rev.A.09.03 software for data acquisition and analysis. A gradient method was used for the determination of all pro-drugs and their hydrolysis products including Apo805 on an Agilent Eclipse XDB, C18 column (part #963967-902, 150×4.6 mm, 3.5 μm) with the following chromatographic conditions: • Temperature: Ambient • Mobile phase: A=Aqueous phase: 10 mM Tris-HCl, 2 mM EDTA, pH 7.4 B=Organic phase: Acetonitrile • Gradient method: Time: 0 min 5% B, 25 min 50% B, 35 min 80% B, 45 min 5% B, 50 min 5% B. • Mobile phase flow rate: 1.0 mL/min • Injection volume: 50 μL • Data acquisition time: 30 min • Detection wavelength: 280 nm; 4 nm bandwidth, ref. 360 nm, • 4 nm bandwidth The chromatograms at λ=280 nm were analyzed. Peak area (mAU*s) was used for quantitation of pro-drugs, intermediates and thymodepressin (Apo805).

[1] = Stability / bioconversion to Apo805 in human blood; settings: 100 μM prodrug, pooled human blood, 37° C.
Description: as §1
Blood was collected from healthy volunteers, both male and female, in Becton Dickinson ACD Vacutainer™ containing ACD solution A (22.0 g/L trisodium citrate, 8.0 g/L citric acid, 24.5 g/L dextrose). […] After 10-min incubation on ice, samples were centrifuged (16,000×g, 10 min) and the supernatants were analyzed by HPLC.

[2] = Pharmacokinetic study in rats, oral bioavailability (plasma Apo805); type: in vivo; settings: male Sprague-Dawley rats, oral 5 mg/kg, in words
Description: Groups of five male Sprague-Dawley rats weighing 250 to 300 g were utilized per dosing group. One day prior to dosing, venous and arterial catheters (made of 20 cm long polyurethane coiled tubing, and filled with 100 units/mL heparinized saline) were implanted into the jugular vein and carotid artery of each rat. Rats were fasted overnight prior to oral dosing and fed approximately 2 hours post-dosing. All dosing and blood sampling was performed on fully conscious rats. Tested compounds were administered either by oral gavage as solutions in water, or by intravenous injection (Apo805K1 only) as solution in 0.9% sodium chloride, final pH 7.0, at doses equivalent to 5 mg/kg (per Apo805 content). Blood (0.3 mL) was sampled from each animal from the carotid artery for up to 30 hours post-dosing, each sampling followed by an equivalent naive-blood replacement. […]
A Sciex API 365 LC/MS/MS […] equipped with Ionics EP10+ and HSID, was used, A chiral column (Supelco-Astec CHIROBIOTIC™ TAG), 100×2.1 mm, 5 μm was used at ambient temperature. […] Samples were analysed for the concentration of Apo805 (thymodepressin).
Non-compartmental analysis was performed using WinNonlin 52 software, on individual animal data. Bioavailability was calculated as a ratio of AUCINF—D after oral dosing of test compound to AUCINF—D after IV dosing of Apo805K1. […]

| Half-life for bioconversion to Apo805 (h), Human hepatocytes (human hepatocytes) [h] | Half-life for bioconversion to Apo805 (h), Human blood [1] [h] | oral bioavailability in rats [2] | Structure (SMILES) | other results |
| --- | --- | --- | --- | --- |
| – | – | show oral bioavailability | CC(OC(=O)OC1CCCCC1)OC(=O)[C@@H](Cc1c[nH]c2ccccc12)NC(=O)CC[C@@H](N)C(=O)O (stereo partly drawn) [Apo843, H-D-Glu(D-Trp-O—CH(CH3)—O—CO—O-cyclohexyl)-OH] | – |
| 4.6 | 5.9 | – | N[C@H](CCC(=O)N[C@@H](Cc1c[nH]c2ccccc12)C(=O)O)C(=O)OCCC(F)(F)F [Apo886] | – |

The remaining lines, values behind:

| Structure (SMILES) | Half-life for bioconversion to Apo805 (h), Human hepatocytes (human hepatocytes) [h] | Half-life for bioconversion to Apo805 (h), Human blood [1] [h] | oral bioavailability in rats [2] | other results |
| --- | --- | --- | --- | --- |
| CCOC(=O)[C@@H](Cc1c[nH]c2ccccc12)NC(=O)CC[C@@H](N)C(=O)O [Apo835, H-D-Glu(D-Trp-OEt)-OH, reference compound] | > 2.0 | >24 | – | percent conversion to Apo805 within indicated time, Human hepatocytes (human hepatocytes; in 2 h): 11% |
| CC(C)(C)C(=O)OCOC(=O)[C@@H](Cc1c[nH]c2ccccc12)NC(=O)CC[C@@H](N)C(=O)O [Apo839, H-D-Glu(D-Trp-OCH2O—CO—C(CH3)3)—OH] | – | – | show oral bioavailability | – |
| CN(C)C(=O)COC(=O)[C@@H](Cc1c[nH]c2ccccc12)NC(=O)CC[C@@H](N)C(=O)O [Apo893, H-D-Glu(D-Trp-O—CH2CO—N(CH3)2)—OH] | – | – | – | biotransformation to thymodepressin (Apo805) in human hepatocytes (human hepatocytes; in words): not readily converted to thymodepressin |
